# Test results published in US10278956B1, “Use of intravenous melatonin in patients with ST-elevation myocardial infarction” (priority 2018, dated 2019).
# “Also recorded” adds a separate entry of the source.
# How the values were obtained:
# [1] = test system: STEMI-patients; experiment: Pilot randomized, double-blinded, placebo controlled study of intravenous melatonin before pPCI; infarct size by CMR; assay type: in vivo, human
# Description: This pilot study is a prospective, randomized, double-blinded, placebo controlled study of consecutive patients admitted with a STEMI. Additional inclusion criteria were presented within 6 hours of chest pain onset and occlusion of culprit artery with TIMI basal flow grade 0 to 1. Patients randomised to intravenous melatonin received a dose of 12 mg (51.7 μmol, in saline solution, in a volume of 50 ml in an opaque syringe) given by a time period of 60 minutes starting immediately before primary percutaneous coronary intervention (pPCI), by via a catheter positioned within a peripheral vein. The control group received a matching intravenous placebo formulation.
# A total of 31 patients were enrolled. Groups were well balanced for age, gender, and cardiovascular risk factors. No significant differences were observed between groups concerning baseline clinical and angiographic characteristics. Randomized patients were divided in 2 groups: Group 1 (patients with ischemia duration 3 hours) and Group 2 (patients with ischemia duration >3 hours). Group 1 there had 17 patients (8 treated with melatonin and 9 with placebo) and in the group 2 there were 14 patients (6 treated with melatonin and 8 with placebo).
# Myocardial infarct size was calculated as percentage of left ventricular mass by cardiovascular magnetic resonance (CMR).
# [2] = test system: patients with ST-segment elevation myocardial infarction (STEMI); details: earlier published trial; cited from earlier work
# [3] = test system: closed-chest porcine model; details: combined intracoronary and intravenous treatment; cited from earlier work
# [4] = Group 1 (≤3 hours ischemia duration), 12 mg intravenous over 60 min starting immediately before pPCI, CMR, *P < 0.01 vs Placebo
# [5] = Group 2 (>3 hours ischemia duration), 12 mg intravenous over 60 min starting immediately before pPCI, CMR
compound,measurement,setting,value
"COc1ccc2[nH]cc(CCNC(C)=O)c2c1 [Melatonin, melatonin]",Infarct size (g),[1]; [4],16.53 ± 7.28* g
same,Infarct size (proportion of left ventricular mass) %,[1]; [4],17.71 ± 7.55* %
same,Infarct size,[1]; [5],25.69 ± 7.34 g
same,Infarct size (proportion of left ventricular mass) %,[1]; [5],20.62 ± 5.37%
same,Myocardial infarct size compared with placebo,"[1]; intravenous, given within 3 hours or less after symptom onset (group 1)",significantly reduces myocardial infarct size; also recorded: significantly smaller
same,Effect on myocardial infarct size compared with placebo,[1]; time from symptom onset to melatonin administration longer than 3 hours,significantly reduced or even opposite effect
same,Effect on ventricular volumes and LVEF evolution,[2],unfavorable effect
same,Myocardial infarct size (MIS) compared with placebo,[2],failed to reduce myocardial infarct size
same,Myocardial reperfusion injury,[3],did not reduce myocardial reperfusion injury
